Measured values published in US4428936A, “Antibacterial composition for medical use” (Toyama Chemical Co., Ltd., priority 1978, dated 1984).

How the values were obtained:
Escherichia coli TK-3 [1] = assay: Growth-inhibition test on clinically isolated strain (agar, about 10^8 cells/ml); format: cell-based; set-up: key: (+) means that the test bacterium grew; (-) means that the test bacterium did not grow; settings: Methicillin sodium: 3200,1600,800,400,200,100,50,25,12.5,0 μg/ml, 18 hours, 37° C
Method: (§1) Heart Infusion agar containing a prescribed amount of Methicillin sodium or T-1551 Na was inoculated with the test bacterium at a rate of about 10^8 cells/ml. After incubation for 18 hours at 37° C., the growth of the test bacterium was inspected.

[2] = tested on: Klebsiella pneumoniae Y-4; assay: as above; format: cell-based; set-up: key: (+) means that the test bacterium grew; (-) means that the test bacterium did not grow; settings: Methicillin sodium: 3200,1600,800,400,200,100,50,25,12.5,0 μg/ml, 18 hours, 37° C
Method: as §1

[3] = tested on: Pseudomonas aeruginosa S-111; assay: as above; format: cell-based; set-up: key: (+) means that the test bacterium grew; (-) means that the test bacterium did not grow; settings: Methicillin sodium 3200,1600,800,400,200,100,50,25,12.5,0 μg/ml, 18 hours, 37° C
Method: as §1

Escherichia coli GN 6299 = assay: Growth-inhibition test with potassium clavulanate; format: cell-based; set-up: key: (+) means that the test bacterium grew; (-) means that the test bacterium did not grow; settings: potassium clavulanate by line b171,b173-b182: 100,(unlabelled),25,(unlabelled),6.25,(unlabelled),1.6,(unlabelled),0.4,(unlabelled),0 μg/ml
Method: as §1
(§2) The same operation as in Test Example 1 was repeated, except that the Methicillin sodium was replaced by potassium clavulanate and the test bacteria were replaced by those shown in Tables 6, 7 and 8, to obtain the results shown in Tables 6, 7 and 8.

[4] = tested on: Klebsiella pneumoniae GN 69; assay: Growth-inhibition test with potassium clavulanate; format: cell-based; set-up: key: (+) means that the test bacterium grew; (-) means that the test bacterium did not grow; settings: potassium clavulanate 100,25,6.25,1.6,0.4,0 μg/ml
Method: as §1, §2

[5] = tested on: Pseudomonas aeruginosa GN 3345; assay: Growth-inhibition test with potassium clavulanate; format: cell-based; set-up: key: (+) means that the test bacterium grew; (-) means that the test bacterium did not grow; settings: potassium clavulanate by line b219-b229: 100,(unlabelled),25,(unlabelled),12.5,(unlabelled),3.1,(unlabelled),0.4,(unlabelled),0 μg/ml
Method: as §1, §2

Escherichia coli TK-3 [6] = assay: Minimum inhibitory concentration; format: cell-based; settings: TK3; Escherichia coli TK-3 strain
Method: (§3) The minimum inhibitory concentration of T-1551 Na or Methicillin sodium against Escherichia coli TK-3 strain or Kleosiella pneumoniae Y-4 strain was greater than 800 μg/ml in each case.

[7] = tested on: Klebsiella pneumoniae Y-4; assay: Minimum inhibitory concentration; format: cell-based; settings: Y4; Klebsiella pneumoniae Y-4 strain
Method: as §3

K. pneumoniae Y-4 = assay: Effect of combined use on experimental infection in mice (protection); format: in vivo, mice (ICR strain) infected with K. pneumoniae; settings: challenge dose 5.7 × 10^7 cells/mouse, peritoneal; subcutaneous administration one and two hours after inoculation
Description: (§4) Male mice (5 mice per group) of the ICR strain, 4 weeks of age, were peritoneally inoculated with the prescribed number of pathogenic bacteria suspended in 5% mucin. After one hour and two hours following the inoculation, test preparations shown in Table 5 were subcuataneously administered to examine the protection effect.

K. pneumoniae Y-53 = assay: as above; format: in vivo, mice (ICR strain) infected with K. pneumoniae; settings: challenge dose 1.0 × 10^7 cells/mouse, peritoneal; subcutaneous administration one and two hours after inoculation
Description: as §4

[8] = T-1551 Na unlabelled column between 12.5 and 3.1 μg/ml
[9] = T-1551 Na unlabelled column between 50 and 12.5 μg/ml
[10] = T-1551 Na unlabelled column between 200 and 50 μg/ml
[11] = T-1551 Na unlabelled column between 800 and 200 μg/ml

MIC (Escherichia coli TK-3 [6]): > 800 µg/mL
MIC [7]: > 800 µg/mL
SMILES: CCN1CCN(C(=O)N[C@@H](C(=O)N[C@@H]2C(=O)N3C(C(=O)O)=C(CSc4nnnn4C)CS[C@H]23)c2ccc(O)cc2)C(=O)C1=O [T-1551 Na, sodium 7-[D(-)-α-(4-ethyl-2,3-dioxo-1-piperazinylcarbonylamino)-p-hydroxyphenylacetamide]-3-[5-(1-methyl-1,2,3,4-tetrazolyl)thiomethyl]-Δ^3-cephem-4-carboxylate]
growth of the test bacterium (Escherichia coli TK-3 [1]; T-1551 Na 0.78 μg/ml): +
growth of the test bacterium (Escherichia coli TK-3 [1]; T-1551 Na 1.56 μg/ml): +
growth of the test bacterium (Escherichia coli TK-3 [1]; T-1551 Na 3.13 μg/ml): +
growth of the test bacterium (Escherichia coli TK-3 [1]; T-1551 Na 6.25 μg/ml): +
growth of the test bacterium (Escherichia coli TK-3 [1]; T-1551 Na 12.5 μg/ml): +
growth of the test bacterium (Escherichia coli TK-3 [1]; T-1551 Na 25 μg/ml): +
growth of the test bacterium (Escherichia coli TK-3 [1]; T-1551 Na 50 μg/ml): +
growth of the test bacterium (Escherichia coli TK-3 [1]; T-1551 Na 100 μg/ml): +
growth of the test bacterium (Escherichia coli TK-3 [1]; T-1551 Na 200 μg/ml): +
growth of the test bacterium ([2]; T-1551 Na 0.78 μg/ml): +
growth of the test bacterium ([2]; T-1551 Na 1.56 μg/ml): +
growth of the test bacterium ([2]; T-1551 Na 3.13 μg/ml): +
growth of the test bacterium ([2]; T-1551 Na 6.25 μg/ml): +
growth of the test bacterium ([2]; T-1551 Na 12.5 μg/ml): +
growth of the test bacterium ([2]; T-1551 Na 25 μg/ml): +
growth of the test bacterium ([2]; T-1551 Na 50 μg/ml): +
growth of the test bacterium ([2]; T-1551 Na 100 μg/ml): +
growth of the test bacterium ([2]; T-1551 Na 200 μg/ml): +
growth of the test bacterium ([3]; T-1551 Na 0.78 μg/ml): +
growth of the test bacterium ([3]; T-1551 Na 1.56 μg/ml): +
growth of the test bacterium ([3]; T-1551 Na 3.13 μg/ml): +
growth of the test bacterium ([3]; T-1551 Na 6.25 μg/ml): +
growth of the test bacterium ([3]; T-1551 Na 12.5 μg/ml): +
growth of the test bacterium ([3]; T-1551 Na 25 μg/ml): +
growth of the test bacterium ([3]; T-1551 Na 50 μg/ml): +
growth of the test bacterium ([3]; T-1551 Na 100 μg/ml): +
growth of the test bacterium ([3]; T-1551 Na 200 μg/ml): +
growth of the test bacterium (Escherichia coli GN 6299; T-1551 Na 0.2 μg/ml): +
growth of the test bacterium (Escherichia coli GN 6299; T-1551 Na 0.8 μg/ml): +
growth of the test bacterium (Escherichia coli GN 6299; T-1551 Na 3.1 μg/ml): +
growth of the test bacterium (Escherichia coli GN 6299; T-1551 Na 12.5 μg/ml): +
growth of the test bacterium (Escherichia coli GN 6299; T-1551 Na 50 μg/ml): +
growth of the test bacterium (Escherichia coli GN 6299; T-1551 Na 200 μg/ml): +
growth of the test bacterium (Escherichia coli GN 6299; T-1551 Na 800 μg/ml): +
growth of the test bacterium (Escherichia coli GN 6299; T-1551 Na unlabelled column between 0.8 and 0.2 μg/ml): +
growth of the test bacterium (Escherichia coli GN 6299; T-1551 Na unlabelled column between 3.1 and 0.8 μg/ml): +
growth of the test bacterium (Escherichia coli GN 6299; [8]): +
growth of the test bacterium (Escherichia coli GN 6299; [9]): +
growth of the test bacterium (Escherichia coli GN 6299; [10]): +
growth of the test bacterium (Escherichia coli GN 6299; [11]): +
growth of the test bacterium ([4]; T-1551 Na 0.2 μg/ml): +
growth of the test bacterium ([4]; T-1551 Na 0.8 μg/ml): +
growth of the test bacterium ([4]; T-1551 Na 3.1 μg/ml): +
growth of the test bacterium ([4]; T-1551 Na 12.5 μg/ml): +
growth of the test bacterium ([4]; T-1551 Na 50 μg/ml): +
growth of the test bacterium ([4]; T-1551 Na 200 μg/ml): +
growth of the test bacterium ([4]; T-1551 Na 800 μg/ml): -
growth of the test bacterium ([5]; T-1551 Na 3.1 μg/ml): +
growth of the test bacterium ([5]; T-1551 Na 12.5 μg/ml): +
growth of the test bacterium ([5]; T-1551 Na 50 μg/ml): +
growth of the test bacterium ([5]; T-1551 Na 200 μg/ml): +
growth of the test bacterium ([5]; T-1551 Na 800 μg/ml): -
growth of the test bacterium [5, 8]: +
growth of the test bacterium [5, 9]: +
growth of the test bacterium [5, 10]: +
growth of the test bacterium [5, 11]: -
ED50 (protection effect) (K. pneumoniae Y-4): > 26.8 mg/mouse
ED50 (protection effect) (K. pneumoniae Y-53): > 10.0 mg/mouse
